# Reference: patent US6156724A, “Uses of didemnins as immunomodulating agents” (priority 1998, dated 2000)
# Numbered stars: 1 amine (or outer) side, 2 acyl side, 3 side chain; on linkers, the order of the positions; unused ones are H or OH. Bridge positions count the residues as written; N and C are the ends. Square brackets hold non-standard residues; d marks the D form. Peptide text beside a SMILES is read from it. * marks the point of attachment. X1 = CC[C@H](C)[C@@H](N[*:1])[C@@H](O)CC(=O)O[C@H](C(=O)[C@H](C)C(=O)[*:2])C(C)C; X3 = CC[C@H](C)[C@H](N[*:1])[C@@H](O)CC(=O)O[C@H](C(=O)[C@H](C)C(=O)[*:2])C(C)C; NMeY = CN[C@@H](Cc1ccc(O)cc1)C(=O)O; Stearoyl = CCCCCCCCCCCCCCCCCC(=O)*; aThr = C[C@H](O)[C@H](N)C(=O)O; NMeL = CN[C@@H](CC(C)C)C(=O)O; dNMeL = CN[C@H](CC(C)C)C(=O)O; Lauroyl = CCCCCCCCCCCC(=O)*; Octanoyl = CCCCCCCC(=O)*; Pyruvoyl = CC(=O)C(=O)*; Hexanoyl = CCCCCC(=O)*; Propionyl = CCC(=O)*; For = O=C*
# Legend:
# [1] = system: Balb/c splenocytes (resting lymphocytes); assay: Lymphocyte viability (LcV) assay; assay type: cell-based, murine; details: unstimulated Balb/c splenocytes, MTT
# Description: Forty two (42) didemnin compounds (see Table 1) were evaluated for cytotoxicity to one of the lymphocyte populations in the MLR (i.e., Balb/c splenocytes). The purpose of the lymphocyte viability assay (LcV) is to measure metabolic activity in lymphocytes after they have been exposed to the compounds for the duration of an under conditions equivalent to the MLR. The inverse of the data yields cytotoxicity information about the compounds on murine lymphocytes. The rationale of using resting cells, in this case unstimulated lymphocytes, to measure cytotoxicity has a strategic importance. In the MLR the heterogenous cell populations are predominantly resting cells when the assay begins.
# Test compounds were prepared in two sets as described above. Splenocytes were prepared as described previously from one murine strain (Balb/c), and a volume of 200 μL of the cell suspension was added to one set of test compounds and control wells.
# Assay plates were incubated as in the MLR and then pulsed overnight 75 μL per well MTT-thiazolyl blue solution (150 μg). The plates were decanted and the resulting insoluble formazan crystals were dissolved in 200 μL of isopropyl alcohol. Absorbance at 570 nm was measured.
# The LcV data were calculated as a percentage of basal metabolic activity, or percent viability, relative to BALB/c control, and an LC50 value was interpolated for each test compound.
# [2] = system: concanavalin A-induced lymphoblasts (Con A splenocytes); assay: Lymphoblast viability (LbV) assay; details: Con A-stimulated splenocytes (lymphoblasts), MTT
# [3] = system: murine splenocytes (Balb/c and C57B1/6); assay: Two-way mixed lymphocyte reaction (MLR) assay; details: Balb/c + C57B1/6 splenocytes, 96 h, [3H]thymidine; for IC50: read-out: two-way mixed lymphocyte reaction (MLR) suppression MLR, IC50;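 on all read-outs here: proliferation read as tritiated thymidine incorporation into newly made DNA after an overnight pulse, expressed as percent of control activity, IC50 interpolated per compound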
Structure (SMILES),"cytoxicity to lymphocytes LcV, LC50 [1]","cytoxicity to lymphocytes LcV, LC50 ([1]; highest concentration 10 μg/mL)","cytotoxicity to lymphocytes LbV, LC50 [2]","two-way mixed lymphocyte reaction (MLR) suppression MLR, IC50 [3]",IC50 [3]
"CCCCCC(=O)N(C)[C@H](CC(C)C)C(=O)N[C@@H]1C(=O)N[C@H]([C@@H](C)CC)[C@@H](O)CC(=O)O[C@@H](C(C)C)C(=O)[C@H](C)C(=O)N[C@@H](CC(C)C)C(=O)N2CCC[C@H]2C(=O)N(C)[C@@H](Cc2ccc(OC)cc2)C(=O)O[C@@H]1C [Compound 22, N^α -Hexanoyldidemnin A] (Hexanoyl-[dNMeL]T[X1]LP[NMeY](Me); ester 2-C)",9600 nM,> 10 µg/mL,0.11 nM,0.022 ng/mL,0.021 nM
"CCCCCCCC(=O)N(C)[C@H](CC(C)C)C(=O)N[C@@H]1C(=O)N[C@H]([C@@H](C)CC)[C@@H](O)CC(=O)O[C@@H](C(C)C)C(=O)[C@H](C)C(=O)N[C@@H](CC(C)C)C(=O)N2CCC[C@H]2C(=O)N(C)[C@@H](Cc2ccc(OC)cc2)C(=O)O[C@@H]1C [Compound 23, N^α -Octanoyldidemnin A] (Octanoyl-[dNMeL]T[X1]LP[NMeY](Me); ester 2-C)",> 9350 nM,> 10 µg/mL,21 nM,5.50 ng/mL,5.1 nM
"CCCCCCCCCCCC(=O)N(C)[C@H](CC(C)C)C(=O)N[C@@H]1C(=O)N[C@H]([C@@H](C)CC)[C@@H](O)CC(=O)O[C@@H](C(C)C)C(=O)[C@H](C)C(=O)N[C@@H](CC(C)C)C(=O)N2CCC[C@H]2C(=O)N(C)[C@@H](Cc2ccc(OC)cc2)C(=O)O[C@@H]1C [Compound 24, N^α -Dodecanoyldidemnin A] (Lauroyl-[dNMeL]T[X1]LP[NMeY](Me); ester 2-C)",> 8900 nM,> 10 µg/mL,160 nM,119 ng/mL,106 nM
"CCCCCCCCCCCCCCCCCC(=O)N(C)[C@H](CC(C)C)C(=O)N[C@@H]1C(=O)N[C@H]([C@@H](C)CC)[C@@H](O)CC(=O)O[C@@H](C(C)C)C(=O)[C@H](C)C(=O)N[C@@H](CC(C)C)C(=O)N2CCC[C@H]2C(=O)N(C)[C@@H](Cc2ccc(OC)cc2)C(=O)O[C@@H]1C [Compound 25, N^α -Octadecanoyldidemnin A] (Stearoyl-[dNMeL]T[X1]LP[NMeY](Me); ester 2-C)",> 8500 nM,> 10 µg/mL,2700 nM,6040 ng/mL,5110 nM
"CC[C@H](C)[C@@H]1NC(=O)[C@@H](NC(=O)[C@H](CC(C)C)N(C)C=O)[C@H](C)OC(=O)[C@H](Cc2ccc(OC)cc2)N(C)C(=O)[C@@H]2CCCN2C(=O)[C@H](CC(C)C)NC(=O)[C@@H](C)C(=O)[C@H](C(C)C)OC(=O)C[C@@H]1O [Compound 26, Didemnin G] (For-[NMeL][aThr][X3]LP[NMeY](Me); ester 2-C)",> 10000 nM,> 10 µg/mL,1.1 nM,0.70 ng/mL,0.72 nM
"CC[C@H](C)[C@H]1NC(=O)[C@@H](NC(=O)[C@@H](CC(C)C)N(C)C(=O)[C@@H](N)CC(C)C)[C@@H](C)OC(=O)[C@H](Cc2ccc(OC)cc2)N(C)C(=O)[C@@H]2CCCN2C(=O)[C@H](CC(C)C)NC(=O)[C@@H](C)C(=O)[C@H](C(C)C)OC(=O)C[C@@H]1O [Compound 27, N-(L-Leu)Didemnin A] (H-L[dNMeL]T[X1]LP[NMeY](Me); ester 3-C)",> 9500 nM,> 10 µg/mL,3.8 nM,0.78 ng/mL,0.74 nM
"CC[C@H](C)[C@H]1NC(=O)[C@@H](NC(=O)[C@@H](CC(C)C)N(C)C(=O)[C@@H]2CCCN2)[C@@H](C)OC(=O)[C@H](Cc2ccc(OC)cc2)N(C)C(=O)[C@@H]2CCCN2C(=O)[C@H](CC(C)C)NC(=O)[C@@H](C)C(=O)[C@H](C(C)C)OC(=O)C[C@@H]1O [Compound 28, N^α -(L-Pro)Didemnin A] (H-P[dNMeL]T[X1]LP[NMeY](Me); ester 3-C)",> 9600 nM,> 10 µg/mL,5.1 nM,1.00 ng/mL,0.96 nM
"CC[C@H](C)[C@H]1NC(=O)[C@@H](NC(=O)[C@@H](CC(C)C)N(C)C(=O)[C@H]2CCCN2)[C@@H](C)OC(=O)[C@H](Cc2ccc(OC)cc2)N(C)C(=O)[C@@H]2CCCN2C(=O)[C@H](CC(C)C)NC(=O)[C@@H](C)C(=O)[C@H](C(C)C)OC(=O)C[C@@H]1O [Compound 29, N^α -(D-Pro)-Didemnin A] (H-[dP][dNMeL]T[X1]LP[NMeY](Me); ester 3-C)",> 9600 nM,> 10 µg/mL,22 nM,12.2 ng/mL,11.7 nM
"CC[C@H](C)[C@H]1NC(=O)[C@@H](NC(=O)[C@@H](CC(C)C)N(C)C(=O)[C@@H]2CCCN2C(=O)C(C)=O)[C@@H](C)OC(=O)[C@H](Cc2ccc(OC)cc2)N(C)C(=O)[C@@H]2CCCN2C(=O)[C@H](CC(C)C)NC(=O)[C@@H](C)C(=O)[C@H](C(C)C)OC(=O)C[C@@H]1O [Compound 30, dehydrodidemnin B] (Pyruvoyl-P[dNMeL]T[X1]LP[NMeY](Me); ester 3-C)",2600 nM,2.90 µg/mL,0.079 nM,0.43 ng/mL,0.38 nM
"CC[C@H](C)[C@H]1NC(=O)[C@@H](NC(=O)[C@@H](CC(C)C)N(C)C(=O)[C@@H]2CCCN2C(C)=O)[C@@H](C)OC(=O)[C@H](Cc2ccc(OC)cc2)N(C)C(=O)[C@@H]2CCCN2C(=O)[C@H](CC(C)C)NC(=O)[C@@H](C)C(=O)[C@H](C(C)C)OC(=O)C[C@@H]1O [Compound 31, [Acetyl^9]Didemnin B] (Ac-P[dNMeL]T[X1]LP[NMeY](Me); ester 3-C)",2800 nM,3.10 µg/mL,0.16 nM,0.22 ng/mL,0.21 nM
"CCC(=O)N1CCC[C@H]1C(=O)N(C)[C@H](CC(C)C)C(=O)N[C@@H]1C(=O)N[C@H]([C@@H](C)CC)[C@@H](O)CC(=O)O[C@@H](C(C)C)C(=O)[C@H](C)C(=O)N[C@@H](CC(C)C)C(=O)N2CCC[C@H]2C(=O)N(C)[C@@H](Cc2ccc(OC)cc2)C(=O)O[C@@H]1C [Compound 32, [Propionyl^9]Didemnin B] (Propionyl-P[dNMeL]T[X1]LP[NMeY](Me); ester 3-C)",1980 nM,2.20 µg/mL,0.184 nM,0.26 ng/mL,0.23 nM
